Tests used:
Assay in all cases: Post-Emergent Test III (Wheat and Barley)
APESV (windgrass) = assay type: in vivo, Apera spica-venti; details: for pest or weed control at 35 g/ha / pest or weed control at 70 g/ha / pest or weed control at 140 g/ha: Apera spica-venti, post-emergence, 504 h, postemergence, read-out: Visual Growth Reduction (%) 21 Days After Application, APESV; for pest or weed control at 35 g/ha: 35 g ai/ha; for pest or weed control at 70 g/ha: 70 g ai/ha; for GR50, APESV: effective dose for growth reduction of 50 percent; for GR50, APESV / GR80, APESV: probit analysis; for GR80, APESV: effective dose for growth reduction of 80 percent; for pest or weed control at 140 g/ha: 140 g ai/ha
Description: (§1) Seeds of the desired test plant species were planted in Sun Gro MetroMix® 306 planting mixture, which typically has a pH of 6.0 to 6.8 and an organic matter content of about 30 percent, in plastic pots with a surface area of 103.2 square centimeters (cm^2). When required to ensure good germination and healthy plants, a fungicide treatment and/or other chemical or physical treatment was applied. The plants were grown for 7-36 days in a greenhouse with an approximate 14 h photoperiod which was maintained at about 18° C. during the day and 17° C. during the night. Nutrients and water were added on a regular basis and supplemental lighting was provided with overhead metal halide 1000-Watt lamps as necessary. The plants were employed for testing when they reached the second or third true leaf stage.
(§2) A weighed amount, determined by the highest rate to be tested, of each test compound was placed in a 25 mL glass vial and was dissolved in 4 mL of a 97:3 v/v mixture of acetone and DMSO to obtain concentrated stock solutions. […] The concentrated stock solutions obtained were diluted with 20 mL of an aqueous mixture containing acetone, water, isopropyl alcohol, DMSO, Agri-Dex crop oil concentrate, and X-77 surfactant in a 48:39:10:1.5:1.5:0.02 v/v ratio to obtain spray solutions containing the highest application rates. Additional application rates were obtained by serial dilution of 12 mL of the high rate solution into a solution containing 2 mL of 97:3 v/v mixture of acetone and DMSO and 10 mL of an aqueous mixture containing acetone, water, isopropyl alcohol, DMSO, Agri-Dex crop oil concentrate, and X-77 surfactant in a 48:39:10:1.5:1.5:0.02 v/v ratio to obtain ½×, ¼×, ⅛× and 1/16× rates of the high rate. Compound requirements are based upon a 12 mL application volume at a rate of 187 liters per hectare (L/ha). Formulated compounds were applied to the plant material with an overhead Mandel track sprayer equipped with 8002E nozzles calibrated to deliver 187 L/ha over an application area of 0.503 square meters at a spray height of 18 inches (43 cm) above the average plant canopy height. Control plants were sprayed in the same manner with the solvent blank.
(§3) The treated plants and control plants were placed in a greenhouse as described above and watered by subirrigation to prevent wash-off of the test compounds. After 21 dAYS, the condition of the test plants as compared with that of the untreated plants was determined visually and scored on a scale of 0 to 100 percent where 0 corresponds to no injury and 100 corresponds to complete kill and presented as indicated in Table A.
(§4) By applying the well-accepted probit analysis as described by J. Berkson in Journal of the American Statistical Society, 48, 565 (1953) and by D. Finney in “Probit Analysis” Cambridge University Press (1952), herbicidal injury of a specific compound at various rates can be used to calculate GR10, GR20, GR50, GR80 and GR90 values, which are defined as growth reduction factors that correspond to the effective dose of herbicide required to provide plant growth reduction (GR) of 10 percent, 20 percent, 50 percent, 80 percent and 90 percent, respectively. Probit analysis was applied to data collected from multiple dose rates of individual compounds utilizing the procedures explained in the following examples. The analysis of those dose rates is captured in the following tables.

HORSS = assay type: in vivo; details: for pest or weed control at 35 g/ha / pest or weed control at 70 g/ha / pest or weed control at 140 g/ha: Hordeum vulgare, post-emergence, 504 h, postemergence, read-out: Visual Growth Reduction (%) 21 Days After Application, HORSS; for pest or weed control at 35 g/ha: 35 g ai/ha; for pest or weed control at 70 g/ha: 70 g ai/ha; for GR20, HORSS: effective dose for growth reduction of 20 percent, probit analysis; for pest or weed control at 140 g/ha: 140 g ai/ha
Description: as §1, §2, §3, §4

TRZSS = assay type: in vivo; details: for pest or weed control at 35 g/ha / pest or weed control at 70 g/ha / pest or weed control at 140 g/ha: Triticum aestivum, post-emergence, 504 h, postemergence, read-out: Visual Growth Reduction (%) 21 Days After Application, TRZSS; for pest or weed control at 35 g/ha: 35 g ai/ha; for pest or weed control at 70 g/ha: 70 g ai/ha; for GR20, TRZSS: effective dose for growth reduction of 20 percent, probit analysis; for pest or weed control at 140 g/ha: 140 g ai/ha
Description: as §1, §2, §3, §4

SETVI (green foxtail) = assay type: in vivo, Setaria viridis; details: for pest or weed control at 35 g/ha / pest or weed control at 70 g/ha / pest or weed control at 140 g/ha: Setaria viridis, post-emergence, 504 h, postemergence, read-out: Visual Growth Reduction (%) 21 Days After Application, SETVI; for pest or weed control at 35 g/ha: 35 g ai/ha; for pest or weed control at 70 g/ha: 70 g ai/ha; for GR50, SETVI: effective dose for growth reduction of 50 percent; for GR50, SETVI / GR80, SETVI: probit analysis; for GR80, SETVI: effective dose for growth reduction of 80 percent; for pest or weed control at 140 g/ha: 140 g ai/ha
Description: as §1, §2, §3, §4

KCHSC (kochia) = assay type: in vivo, Kochia scoparia; details: for pest or weed control at 35 g/ha / pest or weed control at 70 g/ha / pest or weed control at 140 g/ha: Bassia scoparia, post-emergence, 504 h, postemergence, read-out: Visual Growth Reduction (%) 21 Days After Application, KCHSC; for pest or weed control at 35 g/ha: 35 g ai/ha; for pest or weed control at 70 g/ha: 70 g ai/ha; for pest or weed control at 140 g/ha: 140 g ai/ha; for GR50, KCHSC: effective dose for growth reduction of 50 percent; for GR50, KCHSC / GR80, KCHSC: probit analysis; for GR80, KCHSC: effective dose for growth reduction of 80 percent
Description: as §1, §2, §3, §4

ALOMY (blackgrass) = assay type: in vivo, Alopecurus myosuroides; details: for pest or weed control at 35 g/ha / pest or weed control at 70 g/ha / pest or weed control at 140 g/ha: Alopecurus myosuroides, post-emergence, 504 h, postemergence, read-out: Visual Growth Reduction (%) 21 Days After Application, ALOMY; for pest or weed control at 35 g/ha: 35 g ai/ha; for pest or weed control at 70 g/ha: 70 g ai/ha; for GR50, ALOMY: effective dose for growth reduction of 50 percent; for GR50, ALOMY / GR80, ALOMY: probit analysis; for GR80, ALOMY: effective dose for growth reduction of 80 percent; for pest or weed control at 140 g/ha: 140 g ai/ha
Description: as §1, §2, §3, §4

Cc1c(-c2ccc(C(F)(F)F)nc2)nc(C(=O)O)c(Cl)c1N [Compound 51, 4-amino-5-chloro-3-methyl-6′-(trifluoromethyl)-[2,3′-bipyridine]-6-carboxylic acid]
pest or weed control at 35 g/ha (APESV (windgrass)): 0 to 29% | pest or weed control at 70 g/ha (APESV (windgrass)): 60 to 74% | GR50, APESV (APESV (windgrass)): 63 g ai/ha | GR80, APESV (APESV (windgrass)): 139 g ai/ha | pest or weed control at 35 g/ha (HORSS): 60 to 74% | pest or weed control at 70 g/ha (HORSS): 75 to 84% | GR20, HORSS (HORSS): 1 g ai/ha | pest or weed control at 35 g/ha (TRZSS): 60 to 74% | pest or weed control at 70 g/ha (TRZSS): 75 to 84% | GR20, TRZSS (TRZSS): 1 g ai/ha | pest or weed control at 35 g/ha (SETVI (green foxtail)): 75 to 84% | pest or weed control at 70 g/ha (SETVI (green foxtail)): 85 to 94% | GR50, SETVI (SETVI (green foxtail)): 26 g ai/ha | GR80, SETVI (SETVI (green foxtail)): 47 g ai/ha | pest or weed control at 35 g/ha (KCHSC (kochia)): 0 to 29% | pest or weed control at 70 g/ha (KCHSC (kochia)): 0 to 29% | pest or weed control at 35 g/ha (ALOMY (blackgrass)): 0 to 29% | pest or weed control at 70 g/ha (ALOMY (blackgrass)): 0 to 29% | GR50, ALOMY (ALOMY (blackgrass)): >140 g ai/ha | GR80, ALOMY (ALOMY (blackgrass)): >140 g ai/ha

Nc1c(F)c(-c2ccc(OC(F)F)nc2)nc(C(=O)O)c1Cl [Compound 66]
pest or weed control at 35 g/ha (APESV (windgrass)): 0 to 29% | pest or weed control at 70 g/ha (APESV (windgrass)): 0 to 29% | pest or weed control at 140 g/ha (APESV (windgrass)): 60 to 74% | GR50, APESV (APESV (windgrass)): 130 g ai/ha | GR80, APESV (APESV (windgrass)): >140 g ai/ha | pest or weed control at 35 g/ha (HORSS): 60 to 74% | pest or weed control at 70 g/ha (HORSS): 60 to 74% | pest or weed control at 140 g/ha (HORSS): 85 to 94% | GR20, HORSS (HORSS): 15 g ai/ha | pest or weed control at 35 g/ha (TRZSS): 75 to 84% | pest or weed control at 70 g/ha (TRZSS): 85 to 94% | pest or weed control at 140 g/ha (TRZSS): 95 to 100% | GR20, TRZSS (TRZSS): 8 g ai/ha | pest or weed control at 35 g/ha (SETVI (green foxtail)): 30 to 44% | pest or weed control at 70 g/ha (SETVI (green foxtail)): 60 to 74% | pest or weed control at 140 g/ha (SETVI (green foxtail)): 75 to 84% | GR50, SETVI (SETVI (green foxtail)): 49 g ai/ha | GR80, SETVI (SETVI (green foxtail)): 112 g ai/ha | pest or weed control at 35 g/ha (KCHSC (kochia)): 0 to 29% | pest or weed control at 70 g/ha (KCHSC (kochia)): 45 to 59% | pest or weed control at 140 g/ha (KCHSC (kochia)): 60 to 74% | GR50, KCHSC (KCHSC (kochia)): 80 g ai/ha | GR80, KCHSC (KCHSC (kochia)): >140 g ai/ha | pest or weed control at 35 g/ha (ALOMY (blackgrass)): 0 to 29% | pest or weed control at 70 g/ha (ALOMY (blackgrass)): 0 to 29% | pest or weed control at 140 g/ha (ALOMY (blackgrass)): 45 to 59% | GR50, ALOMY (ALOMY (blackgrass)): 140 g ai/ha | GR80, ALOMY (ALOMY (blackgrass)): >140 g ai/ha

COC(=O)c1nc(-c2ccc(Cl)c(F)c2OC)cc(N)c1Cl [Compound 20]
pest or weed control at 35 g/ha (APESV (windgrass)): 0 to 29% | pest or weed control at 70 g/ha (APESV (windgrass)): 60 to 74% | pest or weed control at 140 g/ha (APESV (windgrass)): 75 to 84% | GR50, APESV (APESV (windgrass)): 117 g ai/ha | GR80, APESV (APESV (windgrass)): >140 g ai/ha | pest or weed control at 35 g/ha (HORSS): 45 to 59% | pest or weed control at 70 g/ha (HORSS): 75 to 84% | pest or weed control at 140 g/ha (HORSS): 85 to 94% | GR20, HORSS (HORSS): 7 g ai/ha | pest or weed control at 35 g/ha (TRZSS): 85 to 94% | pest or weed control at 70 g/ha (TRZSS): 85 to 94% | pest or weed control at 140 g/ha (TRZSS): 85 to 94% | GR20, TRZSS (TRZSS): 2 g ai/ha | pest or weed control at 35 g/ha (SETVI (green foxtail)): 0 to 29% | pest or weed control at 70 g/ha (SETVI (green foxtail)): 60 to 74% | pest or weed control at 140 g/ha (SETVI (green foxtail)): 60 to 74% | GR50, SETVI (SETVI (green foxtail)): 80 g ai/ha | GR80, SETVI (SETVI (green foxtail)): >140 g ai/ha | pest or weed control at 35 g/ha (KCHSC (kochia)): 85 to 94% | pest or weed control at 70 g/ha (KCHSC (kochia)): 95 to 100% | pest or weed control at 140 g/ha (KCHSC (kochia)): 95 to 100% | GR50, KCHSC (KCHSC (kochia)): 2 g ai/ha | GR80, KCHSC (KCHSC (kochia)): 10 g ai/ha | pest or weed control at 35 g/ha (ALOMY (blackgrass)): 45 to 59% | pest or weed control at 70 g/ha (ALOMY (blackgrass)): 75 to 84% | pest or weed control at 140 g/ha (ALOMY (blackgrass)): 85 to 94% | GR50, ALOMY (ALOMY (blackgrass)): 86 g ai/ha | GR80, ALOMY (ALOMY (blackgrass)): >140 g ai/ha

— patent US10765114B2, “4-amino-6-(pyridyl and 2-substitutedphenyl)-picolinates and 6-amino-2-(pyridyl and 2-substitutedphenyl)-pyrimidine-4-carboxylates and their use as herbicides” (Dow AgroSciences LLC, priority 2013, dated 2020)
